# Reference: paper PMC4138991, “Building a Better Dynasore: The Dyngo Compounds Potently Inhibit Dynamin and Endocytosis” (Traffic (Copenhagen, Denmark), 2013)
# What was measured:
# [1] = MTT growth inhibition assay; type: cell-based; conditions: human
# Experimental: A 30 mM stock solution of each test compound was prepared in dimethylsulphoxide (DMSO) and stored at −20 °C. All cell lines were cultured at 37 °C, under 5% CO2 in air and were maintained in Dulbecco’s modified Eagle’s medium (Trace Biosciences, Australia) supplemented with 10% foetal bovine serum, 10 mM sodium bicarbonate penicillin (100 IU/mL), streptomycin (100 µg/mL), and glutamine (4 mM). Cells in logarithmic growth were transferred to 96-well plates. Cytotoxicity was determined by plating cells in duplicate in […] medium at a density of 2,500–4,000 cells/well. On day 0, (24 h after plating) when the cells were in logarithmic growth, 100 μL medium with or without the test agent was added to each well. After 72 h drug exposure, growth inhibitory effects were evaluated using the MTT (3-[4,5-dimethyltiazol-2-yl]-2,5-diphenyl-tetrazolium bromide) assay and absorbance read at 540 nm. A dose response curve was produced allowing for the calculation of a GI50 value. This value is the drug concentration at which cell growth is inhibited by 50% based on the difference between the optical density values on day 0 and those at the end of drug exposure.
# rat brain synaptosomes = experiment: Synaptic vesicle endocytosis: FM4-64 uptake in synaptosomes; conditions: read-out: SVE IC50
# [2] = test system: mitochondria in HeLa cells; experiment: Mitotracker labeling of mitochondria, live confocal imaging; type: cell-based; conditions: 30 μM 4a, 30 μM 6a or 100 μM dynasore, 30 min
# From the text: Dynasore was originally reported to inhibit the GTPase activity of dynamin‐like protein 1 (Dlp‐1), which is involved in mitochondrial fission. This raises the possibility that dynasore and the Dyngo compounds may affect mitochondrial morphology and/or dynamics in cells. We investigated this by labeling mitochondria in live HeLa cells using Mitotracker Green FM and imaging the cells over time using confocal microscopy. These cells stably expressed an mCherry‐conjugated form of the nuclear histone protein H2B, providing contrast to the green mitochondria.
# HeLa cells were used that had been stably transduced to express H2B-mCherry. Cells were cultured at 37 °C, 5% CO2 in RPMI medium with 10% FBS. Expression of the transgene was maintained by puromycin selection. The day before imaging, cells were seeded on 4-chambered, glass bottomed 35 mm round dish at a density of 1 x 10^5 cells per chamber. The next day, cells were washed 4x in PBS and then incubated either in RPMI + 10% FBS or RPMI alone for 4 h. Medium was then removed and replaced with Mitotracker green-FM (150 nM) diluted in Hank’s buffered salt solution. Cells were incubated in Mitotracker for 20 min and then returned to RPMI either with or without serum. Cells were then imaged in a Yokugawa CV1000 Cell Voyager live cell confocal system prior to the application of compounds. Compounds were then applied: control samples received 1% DMSO, while test samples received 4a, 6a or dynasore (final DMSO concentration of 1%). Cells were incubated for at 37 °C, 5% CO2 and then images acquired over 2 h at 6 min intervals. 6 images were taken of each test condition.
# [3] = target: T1, clathrin heavy chain binding to amphiphysin 1 (Homo sapiens, UniProt Q00610); experiment: ELISA-based clathrin binding assay; conditions: up to 300 μM
# T1 construct: recombinant GST-tagged clathrin heavy chain TD (amino acids 1-364); made in house; host or cells: bacteria
# T1 sequence (Q00610 1-364): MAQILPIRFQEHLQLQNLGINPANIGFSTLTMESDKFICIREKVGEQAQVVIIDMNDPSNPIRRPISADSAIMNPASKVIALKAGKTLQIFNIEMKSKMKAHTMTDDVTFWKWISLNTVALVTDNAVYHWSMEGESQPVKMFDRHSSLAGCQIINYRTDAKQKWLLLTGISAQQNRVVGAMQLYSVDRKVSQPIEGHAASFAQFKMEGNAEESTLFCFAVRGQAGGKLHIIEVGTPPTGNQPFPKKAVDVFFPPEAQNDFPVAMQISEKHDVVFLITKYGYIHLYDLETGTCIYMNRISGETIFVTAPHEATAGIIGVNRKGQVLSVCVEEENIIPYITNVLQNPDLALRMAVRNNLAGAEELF
# Experimental: (§1) The assay for the interaction of amphiphysin with either clathrin or AP2 was based on our previous report (11). Bacterially expressed recombinant purified His6-tagged amphiphysin 1 PRD+CLAP domains (amino acids 250-578) in screening buffer (20 mM HEPES, pH 7.4, 50 mM NaCl, 1 mM DTT, 1 mM PMSF) was added to a 384 well ELISA plate (high-binding PS Microplate, Greiner Bio-One) and bound to the plastic at room temperature for 1 hr. Non-specific binding was reduced by overnight incubation with 50 µL blocking buffer (20 mM HEPES, pH 7.4, 50 mM NaCl, 1 mM PMSF, 2 % BSA, 2.5 % skim milk) at 4 °C. Following extensive washes (with 20 mM HEPES, pH 7.4, 50 mM NaCl, 0.05 % Tween 20), chemical compounds diluted in DMSO (10 µL) were added and incubated together with bacterially expressed recombinant GST-tagged clathrin heavy chain TD (amino acids 1-364) or GST-AP-2 α-appendage (amino acids 702–938) for 1 hr at room temperature in screening buffer. This incubation was in the presence of test compounds diluted in 1% DMSO or 1% DMSO alone as a control. After 3 washes, horseradish peroxidase-coupled anti-GST antibodies were added in screening buffer and the plate incubated for 15 min at room temperature. Following additional washes, 50 µL TMB (3,3′,5,5′-tetramethylbenzidine) (Pierce Biotechnology) chromogenic substrate of horseradish peroxidase was added and the plate was incubated for 20 min before the reaction was terminated by adding 50 µL 1 N sulfuric acid to produce a yellow colour. The amount of bound protein was determined by spectrophotometric measurement in a plate reader in triplicates. Relative binding was calculated as a percentage of the DMSO control.
# [4] = target: T2, AP-2 alpha ear binding to amphiphysin 1 (Mus musculus, UniProt P17427); experiment: ELISA-based AP-2 binding assay
# T2 construct: GST-AP-2 α-appendage (amino acids 702–938); made in house; host or cells: bacteria
# Experimental: as §1
# human serum albumin = target: T3, human serum albumin (Homo sapiens, UniProt P02768); experiment: Plasma protein binding on immobilized human serum albumin column; type: in vitro ADME; conditions: immobilized HSA column
# T3 construct: purchased ChromTech Chiral‐HSA, 50 × 3.0 mm, 5 µm
# From the text: Plasma protein binding was estimated using an immobilized human serum albumin column (ChromTech Chiral‐HSA, 50 × 3.0 mm, 5 µm) with gradient elution based on a previously published method 56.
# [5] = MCF-7 breast cancer cells, MCF-7, MTT
# T2 sequence (P17427 702-938): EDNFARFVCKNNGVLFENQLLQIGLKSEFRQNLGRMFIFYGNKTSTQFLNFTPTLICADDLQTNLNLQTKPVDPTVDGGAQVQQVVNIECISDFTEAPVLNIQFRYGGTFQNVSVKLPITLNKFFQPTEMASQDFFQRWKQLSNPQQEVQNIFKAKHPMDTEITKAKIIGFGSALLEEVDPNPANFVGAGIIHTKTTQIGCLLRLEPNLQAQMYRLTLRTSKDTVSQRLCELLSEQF
# T3 sequence (P02768 25-609): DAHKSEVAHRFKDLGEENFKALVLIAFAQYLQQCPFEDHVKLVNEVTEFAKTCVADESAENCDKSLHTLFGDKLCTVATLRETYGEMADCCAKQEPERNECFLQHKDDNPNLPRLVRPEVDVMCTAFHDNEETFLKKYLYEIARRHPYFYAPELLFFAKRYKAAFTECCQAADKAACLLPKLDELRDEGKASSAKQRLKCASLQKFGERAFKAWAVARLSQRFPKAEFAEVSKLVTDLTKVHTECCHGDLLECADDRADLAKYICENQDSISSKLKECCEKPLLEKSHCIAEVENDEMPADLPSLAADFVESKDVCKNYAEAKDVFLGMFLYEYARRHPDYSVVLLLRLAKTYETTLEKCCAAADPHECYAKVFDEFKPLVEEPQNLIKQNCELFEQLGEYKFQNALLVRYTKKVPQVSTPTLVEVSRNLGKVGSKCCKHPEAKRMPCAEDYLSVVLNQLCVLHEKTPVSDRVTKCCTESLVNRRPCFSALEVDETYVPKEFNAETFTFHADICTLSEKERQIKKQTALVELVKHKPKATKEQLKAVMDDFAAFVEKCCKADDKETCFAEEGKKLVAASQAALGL
SMILES,GI50 at 72 h ([1]; A431 skin cancer cells) [µM],GI50 at 72 h ([1]; BE2-C neuroblastoma cells) [µM],GI50 at 72 h ([1]; DU145 prostate cancer cells) [µM],GI50 at 72 h ([1]; H460 lung cancer cells) [µM],GI50 at 72 h ([1]; HT29 colon cancer cells) [µM],"GI50 at 72 h [1, 5] [µM]",GI50 at 72 h ([1]; SJ-G2 glioblastoma cells) [µM],GI50 at 72 h ([1]; SW480 colon cancer cells) [µM],GI50 at 72 h ([1]; ovarian cancer cells) [µM],IC50 (rat brain synaptosomes) [µM],mitochondrial morphology [2],inhibition of clathrin heavy chain binding to amphiphysin 1 [3],times less potent on AP-2 binding than for dynamin I inhibition [4] [times],"IC50 ([4]; ELISA, n = 1 in triplicate) [µM]",bound to human serum albumin (human serum albumin) [% bound],"IC50 AP-2 alpha ear binding to amphiphysin 1 ([4]; ELISA, n = 1 in triplicate)"
"O=C(N/N=C/c1cc(O)c(O)cc1O)c1cc2ccccc2cc1O [4a, (E)-3-Hydroxy-N'-(2,4,5-trihydroxybenzylidene) -2-naphthohydrazide]",> 50,> 50,> 50,> 50,> 50,> 50,> 50,> 50,> 50,26.8,did not mediate any changes in mitochondrial morphology,None of the compounds inhibited this interaction,~1000,362,99.4,
"O=C(N/N=C/c1cccc(O)c1O)c1cc2ccccc2cc1O [6a, (E)-N'-(2,3-Dihydroxybenzylidene)-3-hydroxy-2-naphthohydrazide]",> 50,> 50,> 50,> 50,> 50,> 50,> 50,> 50,> 50,70.1,appeared to cause mitochondrial fragmentation,None of the compounds inhibited this interaction,,,99.7,no effect
"O=C(N/N=C/c1ccc(O)c(O)c1)c1cc2ccccc2cc1O [Dynasore, (E)-N'-(3,4-Dihydroxybenzylidene)-3-hydroxy-2-naphthohydrazide]",14 ± 0.6,8.6 ± 0.4,23 ± 1.7,21 ± 1.9,12 ± 1.3,14 ± 0.3,12 ± 1.7,3.6 ± 0.1,6.7 ± 0.4,184,did not mediate any changes in mitochondrial morphology,None of the compounds inhibited this interaction,,,98.8,no effect
